Results: patent US7256279B2, “Protein having ribonucleotide reductase activity and DNA thereof” (Takeda Pharmaceutical Company Limited, priority 1999, dated 2007)

How the values were obtained:
Format in all cases: cell-based
[1] = test system: MCF7 cells; experiment: DNA repair activity through ribonucleotide reductase activity ([3H]-CDP converted to [3H]-dCTP in damaged DNA) after oligonucleotide introduction; settings: 14 Gy γ-ray irradiation 4 hours after lipofectin introduction, cells collected after 0, 24 and 48 hours (FIG. 5)
Description: DNA repair activity through ribonucleotide reductase activity was measured by converting [^3H]-CDP to [^3H]-dCTP through ribonucleotide reductase in cells, in which the DNA had been damaged, and measuring the radioactivity of [^3H]-dCTP in the damaged DNA.
1×10^6 MCF7 cells were propagated on 10 cm petri dishes, cellular DNA was damaged (14 Gy γ-ray irradiation) 24 hours later, and after 0, 6, 24 and 48 hours the cells were harvested. After washing the cells with Solution A (150 mM sucrose, 80 mM KCl, 35 mM Hepes (pH 7.4), 5 mM potassium phosphate (pH 7.4), 5 mM MgCl2, 0.5 mM CaCl2), these cells were treated for 1 minute at 4° C. with Solution A containing 0.25 mg/ml lysolecithin. […] 75 μl of 0.2N NaOH was added to the DNA obtained, which was then incubated for 30 minutes at 37° C. and mixed with 5 ml of AQUASOL-2 (Packard), and radioactivity was measured with an Aloka LSC-5100 liquid scintillation counter. […]
2×10^6 MCF7 cells were propagated on 10 cm petri dishes, and after 24 hours a TP53R2H antisense oligonucleotide (AS3) a sense oligonucleotide (SE3) and a p53 antisense oligonucleotide (p53AS) were introduced according to attached protocol using a lipofectin reagent (GIBCO BRL). […] DNA repair activity was then measured in the same way as in Example 4 above.

[2] = test system: MCF7 cells; experiment: Short-term cell survival (cell numbers counted every day for 6 days) after oligonucleotide introduction and DNA damage; settings: in both the short- and long-term, after DNA damage (Table 1 and FIG. 6)
Description: (§1) Short-term and long-term cell survival rates were also measured when TP53R2H expression was suppressed with an antisense oligonucleotide and DNA was damaged.
(§2) 2×10^6 MCF7 cells) were propagated on 10 cm Petri dishes, and after 24 hours a p53R2 antisense oligonucleotide (AS3), a sense oligonucleotide (SE3) and a p53 antisense oligonucleotide (p53AS) were introduced using a lipofectin reagent. 4 hours later the cellular DNA was damaged (3 or 14 Gy γ-ray irradiation, adiamycin 0.2 μg/ml, UV 10 J/m^2).
(§3) In order to study short-term cell survival, the cells were stripped immediately after DNA damage and re-propagated on 6-hole plates to a density of 3×10^5, and cell numbers were counted every day for 6 days. To study long-term cell survival, the cells were re-propagated after DNA damage on 10 cm plates to a density of 1×10^4 or 1×10^3, and the number of colonies 1 mm or more in diameter was counted after three weeks and expressed as a percentage.

[3] = test system: MCF7 cells; experiment: Long-term cell survival (colony count after three weeks) after oligonucleotide introduction and DNA damage; settings: colonies counted after three weeks
Description: as §1, §2, §3

Substance | DNA repair activity [1] | sensitivity to DNA damage / cell death [2] | long-term cell survival (number of colonies 1 mm or more in diameter, expressed as a percentage) ([3]; Adriamycin (0.2 μg/ml)) [%] | long-term cell survival (number of colonies 1 mm or more in diameter, expressed as a percentage) ([3]; UV (10 J/m2)) [%] | long-term cell survival (number of colonies 1 mm or more in diameter, expressed as a percentage) ([3]; γ-radiation (3Gy)) [%]
AsCsAsTsTsTsAsCsCsTsCsAsTsCsCsT (ACATTTACCTCATCCT; all phosphorothioate, sugars by position and methylation of C not given here) [AS3] | DNA repair activity declined | sensitivity to DNA damage increases and cell death is more likely | 16 | 22 | 59
AsGsGsAsTsGsAsGsGsTsAsAsAsTsGsT (AGGATGAGGTAAATGT; all phosphorothioate, sugars by position not given here) [SE3] |  |  | 100 | 100 | 100
CsCsCsTsGsCsTsCsCsCsCsCsCsTsGsGsCsTsCsC (CCCTGCTCCCCCCTGGCTCC; all phosphorothioate, sugars by position and methylation of C not given here) [p53AS] | DNA repair activity also declined |  | 10 | 11 | 15
